{"source": "patent US8097457B2", "about": "“Liquid crystalline substrates for culturing cells” (Wisconsin Alumni Research Foundation, priority 2005, dated 2012)", "origin": "cited, not measured here", "system": "live cells", "conditions": "contacted with live cells for short periods of time", "data": [{"smiles": "CCCCCc1ccc(-c2ccc(C#N)cc2)cc1", "note": "[5CB, 4′-pentyl-4-cyanobiphenyl]", "values": [{"measurement": "toxicity to live cells", "value": "cause cell death"}]}]}
